Experiments:
Caco-2 cell membranes = system: Caco-2 cell membranes; set-up: method as in PROTAC-DB 3.0; conditions: Caco-2 A-to-B; as recorded in PROTAC-DB 3.0; ref PROTAC-DB 3.0; cited from earlier work
Caco-2 cells = test: Caco-2 cell membrane permeability study (transcellular transport, A-to-B); assay type: in vitro ADME; conditions: Caco-2, A-to-B
Protocol: (§1) KT-474 (Catalog No. E1655), NX-2127 (Catalog No. E1381), MS4078 (Catalog No. S0072), dBET6 (Catalog No. S8762), and dBET57 (Catalog No. S0137) were purchased from Selleck Chemicals (Houston, TX, USA). […] The Caco-2 cell permeability assay using these PROTACs was outsourced to Axcelead Drug Discovery Partners, Inc. (Kanagawa, Japan). Caco-2 cells (American Type Culture Collection, Manassas, VA, USA) were cultured, and a transcellular transport study was performed. The cells were cultured in Transwell 96-well permeable support (pore size 0.4 μm, 0.11 cm^2 surface area) with a polycarbonate membrane (PSHT004S5, Millipore Corporation, Bedford, MA, USA). The cells were preincubated with bovine serum albumin (BSA)-free Hank’s balanced salt solution (HBSS) in the apical compartment (75 μL) and HBSS containing 4% BSA in the basal compartment (250 μL) for 10 min at 37 °C. Subsequently, transcellular transport was initiated by the addition of BSA-free HBSS to apical compartments containing 10 μM compounds. The assay was terminated by separating each assay plate after 2 h. Aliquots (50 μL) from the basolateral compartment were mixed with acetonitrile/methanol. After centrifugation, the compound concentrations in the supernatant were measured using liquid chromatography-tandem mass spectrometry (LC–MS/MS) and a Kinetex C18 column (2.6 μm, 2.1 × 30 mm). The apparent permeabilities (P app, AtoB) of the receivers were determined. Lucifer yellow was added onto the apical compartment at a concentration of 100 μM. The P app of lucifer yellow in the wells where each test compound was evaluated was reported. The P app value of each compound in the membrane permeability test was calculated from a one-point standard curve (0.1 μM) using the following equation. Papp=C×V/T×A×C0 where C (μM) is the concentration of the test compound on the basal side after incubation (measured value); V (mL) is the volume of the basolateral compartment (0.25 mL); T (s) is the permeation experiment time (7200 s); A (cm^2) is the membrane area (0.11 cm^2); and C0 (μM) is the concentration of test compound (measured value).

[1] = as above; assay type: in vitro ADME; conditions: human; Caco-2, apical to basal, 10 μM compound, 2 h, 37 °C, 4% BSA in basal compartment; read-out: Ex. value, cell membrane permeability (Papp, AtoB)
Protocol: as §1

SMILES	Papp A→B at 2 h, 10 μM [1] [×10⁻⁶ cm/s]	experimental value of the cell membrane permeability (Caco-2 cell membranes) [μcm/s]	cell membrane permeability, result in words (Caco-2 cells)
Cc1sc2c(c1C)C(c1ccc(Cl)cc1)=NC(CC(=O)NCc1cn(CCCCNC(=O)COc3ccc(C4CCC(=O)NC4=O)cc3)nn1)c1nnc(C)n1-2 (stereo not drawn) [Compound 2895]		2.14	
Cn1c(=O)n(C2CCC(=O)NC2=O)c2cccc(C#CCOC3CCN(C[C@H]4CC[C@H](n5cc(NC(=O)c6cnn7ccc(N8C[C@H]9C[C@@H]8CO9)nc67)c(C(F)F)n5)CC4)CC3)c21 (stereo partly drawn) [KT-474]	1.26		relatively high cell membrane permeability
Cc1cc(Nc2ncc(Cl)c(Nc3ccccc3S(=O)(=O)C(C)C)n2)c(OC(C)C)cc1C1CCN(CC(=O)NCCNc2cccc3c2C(=O)N(C2CCC(=O)NC2=O)C3=O)CC1 (stereo not drawn) [MS4078]	0.06		
NC(=O)c1ncc(N2CCCCC2)nc1Nc1ccc(C2CCN(C[C@H]3CCN(c4ccc5c(c4)C(=O)N(C4CCC(=O)NC4=O)C5=O)C3)CC2)cc1 (stereo partly drawn) [NX-2127]	0.11		

The next lines start with results.

Papp A→B at 2 h, 10 μM [1] [×10⁻⁶ cm/s]	SMILES	experimental value of the cell membrane permeability (Caco-2 cell membranes) [μcm/s]	cell membrane permeability, result in words (Caco-2 cells)
0.99	Cc1sc2c(c1C)C(c1ccc(Cl)cc1)=NC(CC(=O)NCCCCCCCCNC(=O)COc1cccc3c1C(=O)N(C1CCC(=O)NC1=O)C3=O)c1nnc(C)n1-2 (stereo not drawn) [dBET6]		relatively high cell membrane permeability
0.52	Cc1sc2c(c1C)C(c1ccc(Cl)cc1)=NC(CC(=O)NCCNc1cccc3c1C(=O)N(C1CCC(=O)NC1=O)C3=O)c1nnc(C)n1-2 (stereo not drawn) [dBET57]		relatively high cell membrane permeability
